Laboratory results reported in the supplement of paper PMC8882468.

How the values were obtained:
Assay in all cases: CTG-3D luminescence at 96 h relative to day-0 seeding control (ratio to day 0); higher = more growth / less cytotoxicity; PDxO 3D drug screen, 96 h, CTG-3D normalised to day-0 seeding control.
HCI-016 = tested on: HCI-016 (organoid from a triple-negative breast cancer xenograft)
HCI-027 = tested on: HCI-027 (organoid from a triple-negative breast cancer xenograft)
HCI-025 = tested on: HCI-025 (organoid from a breast cancer xenograft)
HCI-024 = tested on: HCI-024 (organoid from a breast cancer xenograft)
HCI-003.E2 = tested on: HCI-003.E2 (organoid from an ER-positive breast cancer xenograft)

C[C@@H]1COCCN1c1cc(C2([S@](C)(=N)=O)CC2)nc(-c2cc[nH]c3nccc2-3)n1 [ceralasertib]
CTG-3D luminescence at 96 h
Conditions	12.5 pM	0.00025 µM	0.005 µM	0.1 µM	1 µM	10 µM	100 µM	625 fM
HCI-016, days in culture: 153	3.13	2.07	1.95	2.28	1.72	0.113	0.0761	2.11
HCI-016, days in culture: 172	2.3	1.91	1.66	1.88	1.12	0.141	0.0786	1.92
HCI-016, days in culture: 190	1.54	1.14	1.72	1.27	1.11	0.1	0.0608	1.28
HCI-016, days in culture: 199	1.42	1.55	1.36	1.25	0.986	0.0835	0.0684	1.6
HCI-024, days in culture: 105	1.68	1.61	1.35	1.5	0.841	0.567	0.521	1.93
HCI-024, days in culture: 122	2.12	2.11	1.89	2	1.23	0.742	0.54	2.57
HCI-024, days in culture: 163	1.95	1.91	1.68	2.32	1.38	0.897	0.977	2.29
HCI-025, days in culture: 172	2.29	1.93	3.61	2.46	1.59	0.359	0.297	1.92
HCI-025, days in culture: 209	1.3	1.6	1.64	1	0.856	0.386	0.184	1.38
HCI-025, days in culture: 218	1.86	1.85	2.07	1.64	0.97	0.482	0.269	1.88
HCI-027, days in culture: 176	2	1.26	2.33	1.47	0.682	0.114	0.29	2.06
HCI-027, days in culture: 194	1.7	1.54	1.32	1.62	0.748	0.111	0.232	1.56
HCI-027, days in culture: 201	1.78	1.98	1.99	2.1	0.726	0.134	0.279	1.54

HCI-003.E2
Conditions	CTG-3D luminescence at 96 h
12.5 pM	2.11
0.00025 µM	2.23
0.005 µM	2.12
0.1 µM	2.45
1 µM	1.51
10 µM	0.353
100 µM	0.0571
625 fM	2.11

O=C(/C=C/c1cccnc1)NCCCCC1CCN(C(=O)c2ccccc2)CC1 [FK866]
CTG-3D luminescence at 96 h
Conditions	12.5 pM	0.00025 µM	0.005 µM	0.1 µM	1 µM	10 µM	100 µM	625 fM
HCI-016, days in culture: 153	2.99	0.401	0.569	0.026	0.0254	0.0134	0.0183	2.29
HCI-016, days in culture: 172	2.21	1.75	0.508	0.0341	0.0259	0.0131	0.022	1.55
HCI-016, days in culture: 190	1.78	1.44	0.967	0.0245	0.0257	0.0168	0.037	1.08
HCI-016, days in culture: 199	1.45	1.44	0.503	0.0273	0.0129	0.013	0.0134	1.79
HCI-024, days in culture: 105	1.87	1.72	0.265	0.2	0.157	0.205	0.272	2.1
HCI-024, days in culture: 122	2.43	2.32	0.648	0.179	0.209	0.222	0.172	2.91
HCI-024, days in culture: 163	1.91	2.21	0.305	0.221	0.181	0.166	0.306	1.89
HCI-025, days in culture: 172	3.12	0.0766	0.075	0.0447	0.0404	0.0184	-0.00051	2.06
HCI-025, days in culture: 209	2.08	1.82	0.314	0.0825	0.0624	0.0413	0.0255	2.16
HCI-025, days in culture: 218	1.78	2.01	0.0772	0.031	0.013	0.00874	0.00784	1.85
HCI-027, days in culture: 176	1.98	1.8	0.365	0.104	0.104	0.0553	0.082	2.22
HCI-027, days in culture: 194	1.77	1.47	0.26	0.049	0.0511	0.0527	0.0718	1.63
HCI-027, days in culture: 201	1.55	1.66	0.166	0.0645	0.0296	0.0561	0.0649	1.74

HCI-003.E2
Conditions	CTG-3D luminescence at 96 h
12.5 pM	2.05
0.00025 µM	2.19
0.005 µM	0.395
0.1 µM	0.38
1 µM	0.268
10 µM	0.302
100 µM	0.113
625 fM	1.51

Cc1cc(Nc2ncnc3ccc(NC4=NC(C)(C)CO4)cc23)ccc1Oc1ccn2ncnc2c1 [tucatinib]
CTG-3D luminescence at 96 h
Conditions	12.5 pM	0.00025 µM	0.005 µM	0.1 µM	1 µM	10 µM	100 µM	625 fM
HCI-016, days in culture: 153	2.94	1.99	2.31	1.49	2.19	1.96	0.013	1.94
HCI-016, days in culture: 172	2.3	2.27	1.67	1.43	1.54	0.81	0.0152	1.3
HCI-016, days in culture: 190	1.7	1.19	1.48	1.54	1.57	1.45	0.0124	1.1
HCI-016, days in culture: 199	1.77	1.74	1.65	1.66	1.78	1.38	0.019	1.83
HCI-024, days in culture: 105	1.67	1.75	1.37	1.61	1.49	1.54	0.0289	2.2
HCI-024, days in culture: 122	1.99	2.82	2.36	1.93	1.73	1.83	0.0421	2.27
HCI-024, days in culture: 163	1.68	1.9	1.49	2.11	1.77	1.88	0.0384	2.18
HCI-025, days in culture: 172	3	1.87	3.97	2.2	2.35	1.75	0.0232	2.16
HCI-025, days in culture: 209	1.95	2.11	2.45	1.5	1.95	1.9	0.0118	1.06
HCI-025, days in culture: 218	1.26	1.91	1.79	1.43	1.02	1.62	0.249	1.71
HCI-027, days in culture: 176	2.4	1.31	2.9	2.1	1.61	0.414	0.0112	1.82
HCI-027, days in culture: 194	1.81	1.55	1.49	1.66	2.06	1.41	0.0114	1.7
HCI-027, days in culture: 201	2.47	2.58	2.3	2.28	2.1	0.716	0.01	2.42

HCI-003.E2
Conditions	CTG-3D luminescence at 96 h
12.5 pM	2.15
0.00025 µM	2.41
0.005 µM	2.02
0.1 µM	2.29
1 µM	1.93
10 µM	1.31
100 µM	0.018
625 fM	2.12

C[C@]12CC[C@@H]3c4ccc(O)cc4C[C@@H](CCCCCCCCC[S+]([O-])CCCC(F)(F)C(F)(F)F)[C@H]3[C@@H]1CC[C@@H]2O (stereo partly drawn) [fulvestrant]
CTG-3D luminescence at 96 h
Conditions	12.5 pM	0.00025 µM	0.005 µM	0.1 µM	1 µM	10 µM	100 µM	625 fM
HCI-016, days in culture: 153	2.93	2.2	2.24	2.05	2.08	2.62	1.86	2.61
HCI-016, days in culture: 172	2.46	1.77	1.97	1.54	1.72	1.14	1.63	1.6
HCI-016, days in culture: 190	1.79	1.54	1.85	1.28	1.3	0.96	1.07	1.14
HCI-016, days in culture: 199	1.92	2.05	1.9	1.67	2.19	1.62	1.44	2.07
HCI-024, days in culture: 105	1.45	1.55	1.32	1.36	1.34	2.02	1.67	1.87
HCI-024, days in culture: 122	2.08	2.51	2.43	1.84	1.77	2.65	1.86	2.53
HCI-024, days in culture: 163	1.83	1.9	1.55	2.47	2.05	1.88	2.09	1.91
HCI-025, days in culture: 172	3.02	1.74	3.7	1.97	1.97	1.21	2.24	2.87
HCI-025, days in culture: 209	1.87	1.6	2.26	1.66	1.8	1.4	1.23	1.44
HCI-025, days in culture: 218	1.47	1.8	1.97	1.54	1.5	1.93	1.21	1.28
HCI-027, days in culture: 176	2.05	1.67	2.89	2.3	2.57	1.77	2.18	2.36
HCI-027, days in culture: 194	1.74	1.82	1.53	1.78	2.32	2.05	2.15	1.71
HCI-027, days in culture: 201	2.63	2.77	2.87	2.64	2.56	2.01	1.85	2.4

HCI-003.E2
Conditions	CTG-3D luminescence at 96 h
12.5 pM	2.4
0.00025 µM	2.42
0.005 µM	2.09
0.1 µM	2.42
1 µM	1.9
10 µM	1.54
100 µM	1.41
625 fM	2.03
